Source: ChEMBL document CHEMBL4825780 (ACS Med Chem Lett, 2021)
The source made the active and inactive calls. The rule behind the calls is not given here.

Key:
CDK8/Cyclin C = CDK8/Cyclin C (Homo sapiens, UniProt P49336); test: Inhibition of tracer 236 binding to recombinant human His-tagged full length CDK8/Cyclin C expressed in baculovirus expression system by Lanthascreen assay
[1] = target: Cyclin-C/Cyclin-dependent kinase 19 (Homo sapiens, UniProt Q9BWU1); test: Inhibition of tracer 236 binding to recombinant human GST/His-tagged CDK11 (1 to 502 residues)/Cyclin C( 1 to 283 residues) expressed in insect cells by Lanthascreen assay
[2] = Metabolic stability in mouse hepatocytes assessed as half life; type: ADME, cell-based, Hepatocyte
[3] = Metabolic stability in mouse hepatocytes assessed as intrinsic clearance; type: ADME, cell-based, Hepatocyte
[4] = target: T1, Serine/threonine-protein kinase 16 (Homo sapiens, UniProt O75716); test: Inhibition of human wild type partial length STK16 (G11 to I305 residues) expressed in bacterial expression system at 1 uM measured by Kinomescan method
[5] = Half life in C57Bl/6 mouse at 10 mg/kg, po; type: ADME, organism-based; conditions: in vivo
[6] = target: T1, Serine/threonine-protein kinase 16; test: Inhibition of human wild type partial length STK16 (G11 to I305) expressed in bacterial expression system by Kinomescan method
[7] = Cmax in C57Bl/6 mouse at 10 mg/kg, po; type: ADME, organism-based; design: route oral, dose 10 mg/kg; conditions: in vivo
[8] = Oral bioavailability in C57Bl/6 mouse at 10 mg/kg; type: ADME, organism-based; conditions: in vivo
[9] = Volume of distribution at steady state in C57Bl/6 mouse at 10 mg/kg, po or 2 mg/kg, iv; type: ADME, organism-based; conditions: in vivo, read-out: Vdss
[10] = target: Cyclin-dependent kinase 8 (Homo sapiens, UniProt P49336)
Description: Inhibition of human CDK8 in human Jurkat cells assessed as inhibition of STAT1 phosphorylation at S727 residue measured after 24 hrs by Western blot assay

[11] = system: T2, Receptor-type tyrosine-protein kinase FLT3 (Homo sapiens), P36888 [D835V]; test: Inhibition of human partial length FLT3 […] mutant (V592 to Y969 residues) expressed in mammalian expression system at 1 uM measured by Kinomescan method
T2 sequence (whole entry): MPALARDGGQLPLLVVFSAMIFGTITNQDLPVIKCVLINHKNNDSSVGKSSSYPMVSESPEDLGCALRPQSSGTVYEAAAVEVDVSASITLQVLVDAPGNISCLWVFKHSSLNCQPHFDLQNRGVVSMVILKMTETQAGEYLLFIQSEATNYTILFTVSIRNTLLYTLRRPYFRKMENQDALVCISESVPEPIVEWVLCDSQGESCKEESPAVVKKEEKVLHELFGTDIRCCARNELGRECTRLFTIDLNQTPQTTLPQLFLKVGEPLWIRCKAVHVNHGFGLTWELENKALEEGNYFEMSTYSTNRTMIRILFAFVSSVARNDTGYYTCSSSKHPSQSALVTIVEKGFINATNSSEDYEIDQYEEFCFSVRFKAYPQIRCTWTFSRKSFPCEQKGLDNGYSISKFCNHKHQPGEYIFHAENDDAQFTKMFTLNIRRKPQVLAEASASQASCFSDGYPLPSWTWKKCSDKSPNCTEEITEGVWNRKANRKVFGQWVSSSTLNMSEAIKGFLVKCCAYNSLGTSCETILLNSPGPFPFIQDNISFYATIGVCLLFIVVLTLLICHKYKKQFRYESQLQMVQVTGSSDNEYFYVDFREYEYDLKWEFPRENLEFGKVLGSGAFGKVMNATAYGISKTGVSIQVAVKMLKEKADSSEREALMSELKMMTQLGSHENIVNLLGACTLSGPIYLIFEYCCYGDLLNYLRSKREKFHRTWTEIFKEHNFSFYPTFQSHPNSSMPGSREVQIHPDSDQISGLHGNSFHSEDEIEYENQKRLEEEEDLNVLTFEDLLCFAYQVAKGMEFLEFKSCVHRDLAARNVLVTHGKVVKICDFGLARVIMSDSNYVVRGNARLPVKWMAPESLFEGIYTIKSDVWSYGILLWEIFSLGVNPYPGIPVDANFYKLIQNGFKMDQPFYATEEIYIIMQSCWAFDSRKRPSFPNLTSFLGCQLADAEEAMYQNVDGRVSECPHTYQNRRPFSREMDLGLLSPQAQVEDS

[12] = Clearance in C57Bl/6 mouse at 10 mg/kg, po or 2 mg/kg, iv; type: ADME, organism-based; conditions: in vivo
[13] = AUC in C57Bl/6 mouse at 10 mg/kg, po; type: ADME, organism-based; design: dose 10 mg/kg; conditions: in vivo

Chain of CDK8/Cyclin C (P49336 whole entry, the tested form may be a part): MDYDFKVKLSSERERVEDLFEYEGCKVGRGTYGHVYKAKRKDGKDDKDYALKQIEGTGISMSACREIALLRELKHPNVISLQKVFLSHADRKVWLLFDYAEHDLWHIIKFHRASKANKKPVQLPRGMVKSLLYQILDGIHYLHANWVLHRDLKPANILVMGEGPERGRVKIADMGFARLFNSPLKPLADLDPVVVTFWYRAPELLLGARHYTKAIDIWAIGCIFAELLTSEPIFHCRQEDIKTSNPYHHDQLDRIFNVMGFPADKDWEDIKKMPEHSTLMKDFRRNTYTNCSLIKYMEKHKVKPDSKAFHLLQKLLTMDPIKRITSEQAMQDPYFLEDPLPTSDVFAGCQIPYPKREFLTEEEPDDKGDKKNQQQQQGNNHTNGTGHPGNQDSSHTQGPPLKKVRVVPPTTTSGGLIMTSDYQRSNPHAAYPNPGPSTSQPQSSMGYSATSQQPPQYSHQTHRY
Chain of CDK8/Cyclin C (P24863 whole entry, further chain, the tested form may be a part): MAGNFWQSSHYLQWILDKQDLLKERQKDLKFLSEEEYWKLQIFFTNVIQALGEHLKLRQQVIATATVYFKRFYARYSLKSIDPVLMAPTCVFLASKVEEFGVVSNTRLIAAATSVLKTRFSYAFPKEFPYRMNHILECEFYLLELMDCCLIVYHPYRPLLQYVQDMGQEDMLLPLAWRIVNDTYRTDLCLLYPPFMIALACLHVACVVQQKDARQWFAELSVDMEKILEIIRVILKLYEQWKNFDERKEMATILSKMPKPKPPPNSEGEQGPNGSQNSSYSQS
Chain of Cyclin-C/Cyclin-dependent kinase 19 (Q9BWU1 whole entry, the tested form may be a part): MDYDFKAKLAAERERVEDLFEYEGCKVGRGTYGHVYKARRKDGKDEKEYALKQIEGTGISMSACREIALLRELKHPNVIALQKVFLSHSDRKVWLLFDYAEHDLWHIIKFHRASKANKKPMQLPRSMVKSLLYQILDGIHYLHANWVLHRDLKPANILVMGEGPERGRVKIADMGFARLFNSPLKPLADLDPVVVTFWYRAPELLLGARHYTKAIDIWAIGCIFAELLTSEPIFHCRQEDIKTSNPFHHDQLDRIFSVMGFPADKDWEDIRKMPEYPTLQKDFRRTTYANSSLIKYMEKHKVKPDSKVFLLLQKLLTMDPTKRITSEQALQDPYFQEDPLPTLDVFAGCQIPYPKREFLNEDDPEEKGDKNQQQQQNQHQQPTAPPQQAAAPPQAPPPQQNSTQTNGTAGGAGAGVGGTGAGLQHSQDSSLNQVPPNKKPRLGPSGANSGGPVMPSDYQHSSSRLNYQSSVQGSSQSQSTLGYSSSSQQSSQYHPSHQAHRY
Chain of Cyclin-C/Cyclin-dependent kinase 19 (P24863 whole entry, further chain, the tested form may be a part): as the sequence (P24863 whole entry, further chain, the tested form may be a part) above
T1 sequence (O75716 whole entry, the tested form may be a part): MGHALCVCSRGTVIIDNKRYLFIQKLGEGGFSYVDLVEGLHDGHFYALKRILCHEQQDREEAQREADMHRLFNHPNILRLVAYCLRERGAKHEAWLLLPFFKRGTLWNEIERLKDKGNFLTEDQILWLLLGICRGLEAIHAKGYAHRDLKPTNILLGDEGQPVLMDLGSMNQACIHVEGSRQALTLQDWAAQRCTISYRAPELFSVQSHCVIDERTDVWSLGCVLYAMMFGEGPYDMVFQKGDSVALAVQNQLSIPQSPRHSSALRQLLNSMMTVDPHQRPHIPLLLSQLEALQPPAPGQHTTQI
Chain of Cyclin-dependent kinase 8 (P49336 whole entry, the tested form may be a part): as the sequence (P49336 whole entry, the tested form may be a part) above

| SMILES | IC50 (CDK8/Cyclin C) | IC50 [1] | other results |
| --- | --- | --- | --- |
| Cn1ncc2cc(-c3cnc4[nH]ncc4c3N3CCC4(CCNC4=O)CC3)ccc21 | 178 nM | 214 nM | half-life [2]: 11 min; intrinsic clearance (CLint) [3]: 59 µL/min/mg |
| Cn1ncc2cc(-c3cnc4[nH]nc(Cl)c4c3N3CCC4(CCNC4=O)CC3)ccc21 | 1 nM | 2 nM | inhibition [4]: Active; half-life [5]: 78 min; IC50 [6]: 107 nM; Cmax [7]: 104 ng/mL; bioavailability [8]: 8%; Vd [9]: 0.8 L/kg; IC50 [10]: 2 nM; inhibition [11]: Active; clearance [12]: 17 mL/min/kg; AUC [13]: 864 ng·h/mL; half-life [2]: 46 min; intrinsic clearance (CLint) [3]: 15 µL/min/mg |
| Cn1ncc2cc(-c3cnc4[nH]cnc4c3N3CCC4(CCNC4=O)CC3)ccc21 | 10 nM | 5 nM | half-life [2]: 5 min; intrinsic clearance (CLint) [3]: 158 µL/min/mg |
| Cn1ncc2cc(-c3cnc4[nH]ccc4c3N3CCC4(CCNC4=O)CC3)ccc21 | – | – | half-life [2]: 9 min; intrinsic clearance (CLint) [3]: 78 µL/min/mg |
| Cn1ncc2cc(-c3cnc4[nH]ccc4c3N3CCC4(CCCNC4=O)CC3)ccc21 | – | 3 nM | – |
| Cn1ncc2cc(-c3cnc4[nH]ccc4c3N3CCC4(CC3)CNC(=O)O4)ccc21 | 7 nM | 6 nM | – |
| O=C1NCCC12CCN(c1c(-c3ccc4scnc4c3)cnc3[nH]ccc13)CC2 | 6 nM | 14 nM | – |
| Cn1ncc2cc(-c3cnc4[nH]ccc4c3N3CC4(CNC(=O)C4)C3)ccc21 | 916 nM | 698 nM | – |
| O=C1NCCC12CCN(c1c(-c3ccc4ncsc4c3)cnc3[nH]ccc13)CC2 | 25 nM | 80 nM | – |
| Cc1n[nH]c2ncc(C(=O)N3CCC[C@H]3c3ccc(Cl)cc3)cc12 | – | – | IC50 [10]: 3 nM |
| Cn1ncc2cc(-c3cnc4[nH]ccc4c3N3CCC4(CC3)CNC4=O)ccc21 | 6 nM | 6 nM | – |

Further lines, with some results ahead:

| IC50 (CDK8/Cyclin C) | IC50 [1] | SMILES | other results |
| --- | --- | --- | --- |
| 274 nM | 1020 nM | O=C1NCCC12CCN(c1c(-c3ccc4ncnn4c3)cnc3[nH]ccc13)CC2 | – |
| 32 nM | 50 nM | Cn1cnc2cc(-c3cnc4[nH]ccc4c3N3CCC4(CCNC4=O)CC3)ccc21 | – |
| 55 nM | 29 nM | Cn1ncc2cc(-c3cnc4[nH]ccc4c3N3CCC4(CCNC4=O)C3)ccc21 (stereo not drawn) | – |
| – | 2 nM | Cn1ncc2cc(-c3cnc4[nH]ccc4c3N3CCC4(CC3)NC(=O)NC4=O)ccc21 | – |
| 5 nM | 17 nM | O=C1NCCC12CCN(c1c(-c3ccc4[nH]cnc4c3)cnc3[nH]ccc13)CC2 | – |
| 538 nM | 426 nM | Cn1ncc2cc(-c3cnc4[nH]ccc4c3N3CC4(CCNC4=O)C3)ccc21 | – |
| 2 nM | 10 nM | Cn1ncc2cc(-c3cnc4[nH]cc(Cl)c4c3N3CCC4(CCNC4=O)CC3)ccc21 | half-life [2]: 11 min; intrinsic clearance (CLint) [3]: 64 µL/min/mg |
| 76 nM | 68 nM | O=C1NCCC12CCN(c1c(-c3ccn4ccnc4c3)cnc3[nH]ccc13)CC2 | – |
